According to the NIST ThermoML archive (doi:10.1007/s10765-016-2104-7):
± gives the expanded uncertainty stated by the source.

Details: Liquid, Vibrating wire viscometry

## [Au] [gold]
1373 K
  viscosity: 5.625 ± 0.65 mPa·s
1423 K
  viscosity: 5.47 ± 0.16 mPa·s
1473 K
  viscosity: 4.963 ± 0.36 mPa·s
1523 K
  viscosity: 4.764 ± 0.25 mPa·s
1573 K
  viscosity: 4.495 ± 0.32 mPa·s
1623 K
  viscosity: 4.276 ± 0.51 mPa·s
1673 K
  viscosity: 3.981 ± 0.57 mPa·s

## [Ag] [silver]
1273 K
  viscosity: 3.52 ± 0.74 mPa·s
1323 K
  viscosity: 2.904 ± 0.45 mPa·s
1373 K
  viscosity: 2.812 ± 0.65 mPa·s
1423 K
  viscosity: 2.649 ± 0.33 mPa·s
1473 K
  viscosity: 2.54 ± 0.22 mPa·s
1523 K
  viscosity: 2.498 ± 0.46 mPa·s
1573 K
  viscosity: 2.399 ± 0.35 mPa·s
1623 K
  viscosity: 2.332 ± 0.39 mPa·s
1673 K
  viscosity: 2.214 mPa·s

## [Sn] [tin]
873 K
  viscosity: 1.253 ± 0.2 mPa·s
973 K
  viscosity: 1.142 ± 0.3 mPa·s
1073 K
  viscosity: 1.087 ± 0.047 mPa·s
